In US20200009088A1, “COMPOSITIONS AND METHODS FOR TREATING ANDROGEN-INDEPENDENT CANCER” (The Regents of the University of California, priority 2017, published 2020):
“Also recorded” adds a separate entry of the source.

Columns and labels:
[1] = test system: AR; assay: Western blot of AR in CWR22Rv1 xenograft tumor lysates; assay type: in vivo; conditions: CWR22Rv1 xenograft lysates vs controls, FIG. 13D
Protocol: (§1) Tumor volume, tumor weight, and body weight were measured. Protein lysates were isolated from the tumors and analyzed for AR and AR-V7 expression by Western blot. […] “AR-Variants” represents a combination of all forms of AR. * denotes p<0.05.
(§2) Protein lysates were isolated and analyzed for AR and AR-V7 expression by Western blot.

[2] = test system: MDA-MB-468 cells; assay: Breast cancer cell growth, MDA-MB-468; assay type: cell-based; conditions: three days, FIG. 20A
[3] = target: T1, AR-V7 (Homo sapiens, UniProt P10275); assay: Western blot of AR-V7 expression in CWR22Rv1 cell lysates; assay type: cell-based; set-up: endogenous in cells; host or cells: CWR22Rv1 prostate cancer cells (also grown as xenograft tumours); conditions: CWR22Rv1 cells, FIG. 2A
T1 sequence (P10275 1-644 isoform P10275-3): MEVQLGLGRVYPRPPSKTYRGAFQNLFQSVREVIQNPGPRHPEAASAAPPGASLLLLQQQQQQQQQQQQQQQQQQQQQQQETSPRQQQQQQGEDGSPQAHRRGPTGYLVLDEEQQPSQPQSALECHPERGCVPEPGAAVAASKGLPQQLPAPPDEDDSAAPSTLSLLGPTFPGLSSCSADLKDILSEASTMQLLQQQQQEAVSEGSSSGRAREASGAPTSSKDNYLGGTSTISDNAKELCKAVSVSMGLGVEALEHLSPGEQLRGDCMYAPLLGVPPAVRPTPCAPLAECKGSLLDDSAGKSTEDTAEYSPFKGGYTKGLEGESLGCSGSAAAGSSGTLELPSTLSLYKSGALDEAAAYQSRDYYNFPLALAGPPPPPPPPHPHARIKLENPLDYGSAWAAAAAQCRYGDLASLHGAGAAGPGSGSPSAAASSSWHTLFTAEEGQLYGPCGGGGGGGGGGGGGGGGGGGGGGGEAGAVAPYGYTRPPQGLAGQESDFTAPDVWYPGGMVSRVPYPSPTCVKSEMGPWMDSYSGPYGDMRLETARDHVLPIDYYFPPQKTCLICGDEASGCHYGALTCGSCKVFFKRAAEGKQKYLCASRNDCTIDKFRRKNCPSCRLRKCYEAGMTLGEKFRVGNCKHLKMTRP
Protocol: (§3) “AR-Variants” represents a combination of all forms of AR.
(§4) The effects of the synthetic small molecule modulators on AR and AR variant expression were determined. CWR22Ry1 prostate cancer cells were treated with different compounds. Protein lysates were analyzed for AR and AR variant expression.

[4] = target: T2, wild-type AR (Homo sapiens, UniProt P10275); assay: AR transactivation luciferase assay in HEK 293 cells, wild-type AR; assay type: cell-based; conditions: luciferase reporter, FIG. 5A
T2 construct: expressed in transfected cells; host or cells: HEK 293
Protocol: (§5) HEK 293 cells were transiently transfected with expression vectors encoding the corresponding mutant AR and an androgen-responsive luciferase reporter gene construct. […] Luciferase activity was then determined.

[5] = test system: AR; assay: Western blot of AR expression in CWR22Rv1 cell lysates; assay type: cell-based; conditions: CWR22Rv1 cells, FIG. 2A
Protocol: as §3, §4

[6] = test system: LuCaP 35CR PDX xenograft; assay: LuCaP 35CR PDX tumor model, oral administration; assay type: in vivo, mice
From the text: For the data shown in FIG. 19A, a LuCaP 35CR PDX model was established in male castrated SCID mice. […] Tumor and body weights are shown in FIGS. 19B and 19C, respectively.

[7] = test system: CWR22Rv1 cells; assay: Cell growth assay (cell numbers), CWR22Rv1; assay type: cell-based; conditions: for synergy with abiraterone in inhibiting cell growth: CWR22Rv1, analog 0.25 μM + abiraterone 5 μM; for cell growth, combination with abiraterone: CWR22Rv1, analog 0.25 μM + abiraterone 5 μM, 0, 3, 5 days; for cell growth, combination with abiraterone / cell growth, combination with enzalutamide: FIGS. 9, 11; for cell growth, combination with bicalutamide: CWR22Rv1, analog 0.25 μM + bicalutamide 20 μM, 0, 3, 5 days; for synergy with enzalutamide in inhibiting cell growth: CWR22Rv1, analog 0.25 μM + enzalutamide 20 μM; for cell growth, combination with enzalutamide: CWR22Rv1, analog 0.25 μM + enzalutamide 20 μM, 0, 3, 5 days; for cell growth, niclosamide analog alone: CWR22Rv1, analog 0.25 μM, 0, 3, 5 days, FIGS. 9, 11, 12
Protocol: DMSO treatment was used as a negative control. Total cell numbers were counted at 0, 3, and 5 days.
DMSO treatment was used as a negative control. Total cell numbers were counted at 0, 3, and 5 days. […]
The cell growth was determined at 3,5 days. […] The cell growth was determined at 3,5 days.

[8] = test system: CWR22Rv1 tumor xenografts; assay: CWR22Rv1 tumor xenograft growth in vivo
Protocol: as §1, §2

[9] = target: T1, AR-V7; assay: Western blot of AR-V7 in CWR22Rv1 xenograft tumor lysates; assay type: in vivo; set-up: endogenous in cells; host or cells: CWR22Rv1 prostate cancer cells (also grown as xenograft tumours); conditions: CWR22Rv1 xenograft lysates vs controls, FIG. 13D
Protocol: as §1, §2

[10] = test system: C4-2B MDVR cells; assay: Cell growth assay (cell numbers), C4-2B MDVR; assay type: cell-based; conditions: for cell proliferation, combination with enzalutamide (MDV) / cell growth: C4-2B MDVR, 48 hours; for cell proliferation, combination with enzalutamide (MDV): 0.5 μM + enzalutamide, FIG. 7B; for cell growth: increasing doses of niclosamide/analogs, FIG. 6
[11] = target: T3, L702H AR mutant (Homo sapiens, UniProt P10275, L702H); assay: AR transactivation luciferase assay in HEK 293 cells, L702H; assay type: cell-based; conditions: luciferase reporter, FIG. 5F
T3 construct: expressed in transfected cells; host or cells: HEK 293
Protocol: as §5

[12] = target: T4, AR-FL (Homo sapiens, UniProt P10275, T878A); assay: PSA-luc assay in C4-2B cells (pcDNA), AR-FL; assay type: cell-based; conditions: FBS, 1 μM overnight, FIG. 14A
T4 construct: endogenous in cells; host or cells: C4-2B cells transfected with pcDNA and the PSA-E/P-luciferase reporter
From the text: (§6) C4-2B cells were cotransfected with pcDNA, with or without AR-V1, AR-V3, AR-V7, AR-V9 or AR-V12, and with PSA-E/P-luciferase plasmids in FBS condition.

[13] = target: T1, AR-V7; assay: PSA-luc assay in C4-2B cells, AR-V7; assay type: cell-based; conditions: FBS, 1 μM overnight, FIG. 14D
From the text: as §6

SMILES: O=C(Nc1ccc(C(F)(F)F)cc1Cl)c1cc(Cl)ccc1O [Compound 7]
- AR protein expression in tumors [1]: significantly inhibited
- breast cancer cell growth [2]: inhibited
- AR-V7 (AR variant) expression [3]: inhibited
- wild-type AR transactivation [4]: blocked
- AR expression [5]: inhibited
- serum PSA levels compared with niclosamide ([6]; both p.o. 150 mg/kg): to a greater extent than niclosamide
- anti-tumor activity (tumor volume) compared with niclosamide ([6]; both p.o. 150 mg/kg, 150 mg/kg): to a greater extent than niclosamide; also recorded: better anti-tumor activity than niclosamide
- tumor growth ([6]; castrated SCID mice, p.o. 150 mg/kg, 4 weeks, FIG. 19, 150 mg/kg): significantly inhibited; also recorded: suppressed
- body weight ([6]; castrated SCID mice, p.o. 150 mg/kg, 4 weeks, FIG. 19C): without inhibition of body weight
- PSA protein expression in mouse sera ([6]; p.o. 150 mg/kg, 4 weeks, FIG. 19D): inhibited
- enhancement of abiraterone treatment (cell growth) ([7]; CWR22Rv1, 0.5 μM Compound 7 + 5 μM abiraterone, 3,5 days, FIG. 17B): significantly enhanced
- enhancement of apalutamide treatment (cell growth) ([7]; CWR22Rv1, 0.5 μM Compound 7 + 20 μM apalutamide, 3,5 days, FIG. 17A): significantly enhanced
- synergy with abiraterone in inhibiting cell growth [7]: able to synergize
- cell growth, combination with abiraterone [7]: able to significantly inhibit
- cell growth, combination with bicalutamide ([7]; FIG. 12): able to significantly inhibit
- synergy with enzalutamide in inhibiting cell growth [7]: able to synergize
- cell growth, combination with enzalutamide [7]: able to significantly inhibit
- cell growth, niclosamide analog alone [7]: None of Compounds 1, 7, 30, 31, or 34 alone were able to inhibit
- body weight ([8]; FIG. 13B): without inhibition of body weight
- tumor growth ([8]; FIGS. 13A-13C): significantly inhibited
- AR-V7 protein expression in tumors [9]: significantly inhibited
- cell proliferation, combination with enzalutamide (MDV) [10]: further inhibited
- cell growth [10]: able to inhibit cell growth in a dose-dependent manner
- L702H mutant AR transactivation [11]: significantly blocked
- AR-FL-mediated transcriptional activity (PSA-luc) [12]: inhibited
- AR-V7-mediated PSA-luc activity [13]: inhibited

SMILES: C=CC(=O)Oc1ccc(Cl)cc1C(=O)Nc1ccc([N+](=O)[O-])cc1Cl [Compound 31]
- breast cancer cell growth [2]: inhibited
- AR-V7 (AR variant) expression [3]: inhibited
- wild-type AR transactivation [4]: blocked
- AR expression [5]: inhibited
- synergy with abiraterone in inhibiting cell growth [7]: able to synergize
- cell growth, combination with abiraterone [7]: significantly inhibited
- cell growth, combination with bicalutamide ([7]; FIG. 12): able to significantly inhibit
- synergy with bicalutamide in inhibiting cell growth ([7]; CWR22Rv1, analog 0.25 μM + bicalutamide 20 μM, FIG. 12): able to synergize
- synergy with enzalutamide in inhibiting cell growth [7]: able to synergize
- cell growth, combination with enzalutamide [7]: significantly inhibited
- cell growth, niclosamide analog alone [7]: None of Compounds 1, 7, 30, 31, or 34 alone were able to inhibit
- cell proliferation, combination with enzalutamide (MDV) [10]: further inhibited
- cell growth [10]: able to inhibit cell growth in a dose-dependent manner
- synergy with abiraterone in inhibiting cell growth ([10]; C4-2BMDVR, analog 0.25 μM + abiraterone 5 μM, FIG. 10): able to synergize
- synergy with enzalutamide in inhibiting cell growth ([10]; C4-2BMDVR, analog 0.25 μM + enzalutamide 20 μM, FIG. 10): able to synergize
- L702H mutant AR transactivation [11]: significantly blocked
- AR-FL-mediated transcriptional activity (PSA-luc) [12]: inhibited
- AR-V7-mediated PSA-luc activity [13]: inhibited
